# Ends that are not written are not given here.
# Key:
# [1] = test system: antibodies in sera from HCV-seropositive donors; test: ELISA with HCV antibody-positive sera (biotinylated peptides on streptavidin- or avidin-coated plates, unbiotinylated peptides coated directly); format: binding, human; details: for PEPTIDE ELISA (O.D.): Table 12, biotinylated 20-mers
# In short: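 Read-out is OD at 450 nm after HRP goat anti-human Ig and TMB development, following 1 h at 37° C. with seropositive or negative sera diluted 1:100 (or 20-fold). Antigen was either unbiotinylated peptide adsorbed on plastic (pH 9.6 carbonate, 2–5 or 3 μg/ml) or biotinylated peptide at 1 μg/ml captured on streptavidin-coated wells, with casein blocking.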
# [2] = ELISA with seronegative / negative control sera (specificity); format: binding, human
# In short: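 Specificity readout is OD at 450 nm (HRP goat anti-human Ig, TMB/H2O2, sulfuric acid stop), with ≥0.250 counted positive. Seronegative donor sera (typically 1:100, 1 h, 37° C) were applied to casein-blocked wells coated with peptide directly or via streptavidin capture of biotinylated peptide.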
sequence,measurement,setting,value
PQRKTKRNTNRRPQDVKFPG,optical density (450 nm),"[1]; Table 4C, serum 8241, 20-fold dilution",0.545
same,optical density (450 nm),"[1]; Table 4C, serum 8242, 20-fold dilution",2.415
same,optical density (450 nm),"[1]; Table 4C, serum 8243, 20-fold dilution",2.306
same,optical density (450 nm),"[1]; Table 4C, serum 8247, 20-fold dilution",1.975
same,optical density (450 nm),"[1]; Table 4C, serum 8250, 20-fold dilution",0.357
same,optical density (450 nm),"[1]; Table 4C, serum 8271, 20-fold dilution",1.284
same,optical density (450 nm),"[1]; Table 4C, serum 8273, 20-fold dilution",2.769
same,optical density (450 nm),"[1]; Table 4C, serum 8274, 20-fold dilution",2.943
same,optical density (450 nm),"[1]; Table 4C, serum 8275, 20-fold dilution",2.030
same,optical density (450 nm),"[1]; Table 4C, serum 8276, 20-fold dilution",2.348
same,optical density (450 nm),"[1]; Table 4C, serum 8277, 20-fold dilution",2.572
same,optical density (450 nm),"[1]; Table 4C, serum 8278, 20-fold dilution",2.022
same,optical density (450 nm),"[1]; Table 5, sample 8242 (positive), peptide concentration 0.01 micrograms per milliliter, listed as HCV peptide II",1.196
same,optical density (450 nm),"[1]; Table 5, sample 8242 (positive), peptide concentration 0.03 micrograms per milliliter, listed as HCV peptide II",1.481
same,optical density (450 nm),"[1]; Table 5, sample 8242 (positive), peptide concentration 0.1 micrograms per milliliter, listed as HCV peptide II",1.399
same,optical density (450 nm),"[1]; Table 5, sample 8242 (positive), peptide concentration 0.3 micrograms per milliliter, listed as HCV peptide II",1.365
same,optical density (450 nm),"[1]; Table 5, sample 8242 (positive), peptide concentration 1.0 micrograms per milliliter, listed as HCV peptide II",1.368
same,optical density (450 nm),"[1]; Table 5, sample 8242 (positive), peptide concentration 3.0 micrograms per milliliter, listed as HCV peptide II",1.427
same,optical density (450 nm),"[1]; Table 5, sample 8243 (positive), peptide concentration 0.01 micrograms per milliliter, listed as HCV peptide II",1.088
same,optical density (450 nm),"[1]; Table 5, sample 8243 (positive), peptide concentration 0.03 micrograms per milliliter, listed as HCV peptide II",1.597
same,optical density (450 nm),"[1]; Table 5, sample 8243 (positive), peptide concentration 0.1 micrograms per milliliter, listed as HCV peptide II",1.639
same,optical density (450 nm),"[1]; Table 5, sample 8243 (positive), peptide concentration 0.3 micrograms per milliliter, listed as HCV peptide II",1.608
same,optical density (450 nm),"[1]; Table 5, sample 8243 (positive), peptide concentration 1.0 micrograms per milliliter, listed as HCV peptide II",1.652
same,optical density (450 nm),"[1]; Table 5, sample 8243 (positive), peptide concentration 3.0 micrograms per milliliter, listed as HCV peptide II",1.668
same,optical density (450 nm),"[1]; Table 5, sample 8318 (positive), peptide concentration 0.01 micrograms per milliliter, listed as HCV peptide II",2.002
same,optical density (450 nm),"[1]; Table 5, sample 8318 (positive), peptide concentration 0.03 micrograms per milliliter, listed as HCV peptide II",2.181
same,optical density (450 nm),"[1]; Table 5, sample 8318 (positive), peptide concentration 0.1 micrograms per milliliter, listed as HCV peptide II",2.001
same,optical density (450 nm),"[1]; Table 5, sample 8318 (positive), peptide concentration 0.3 micrograms per milliliter, listed as HCV peptide II",1.958
same,optical density (450 nm),"[1]; Table 5, sample 8318 (positive), peptide concentration 1.0 micrograms per milliliter, listed as HCV peptide II",1.993
same,optical density (450 nm),"[1]; Table 5, sample 8318 (positive), peptide concentration 3.0 micrograms per milliliter, listed as HCV peptide II",2.016
same,optical density (450 nm),"[1]; Table 5, sample 8320 (positive), peptide concentration 0.01 micrograms per milliliter, listed as HCV peptide II",2.519
same,optical density (450 nm),"[1]; Table 5, sample 8320 (positive), peptide concentration 0.03 micrograms per milliliter, listed as HCV peptide II",2.757
same,optical density (450 nm),"[1]; Table 5, sample 8320 (positive), peptide concentration 0.1 micrograms per milliliter, listed as HCV peptide II",2.718
same,optical density (450 nm),"[1]; Table 5, sample 8320 (positive), peptide concentration 0.3 micrograms per milliliter, listed as HCV peptide II",2.684
same,optical density (450 nm),"[1]; Table 5, sample 8320 (positive), peptide concentration 1.0 micrograms per milliliter, listed as HCV peptide II",2.684
same,optical density (450 nm),"[1]; Table 5, sample 8320 (positive), peptide concentration 3.0 micrograms per milliliter, listed as HCV peptide II",2.718
same,optical density (450 nm),"[1]; Table 8, serum 8243 (HCV), Avidin",1.430
same,optical density (450 nm),"[1]; Table 8, serum 8247 (HCV), Avidin",1.356
same,optical density (450 nm),"[1]; Table 8, serum 8248 (HCV), Avidin",2.287
same,optical density (450 nm),"[1]; Table 8, serum 8269 (HCV), Avidin",1.213
same,optical density (450 nm),"[1]; Table 8, serum 8273 (HCV), Avidin",2.017
same,optical density (450 nm),"[1]; Table 8, serum 8278 (HCV), Avidin",1.878
same,optical density (450 nm),"[1]; Table 8, serum 8285 (HCV), Avidin",1.592
same,optical density (450 nm),"[1]; Table 8, serum 8290 (HCV), Avidin",0.060
same,optical density (450 nm),"[1]; Table 8, serum 8291 (HCV), Avidin",1.539
same,PEPTIDE ELISA (O.D.),[1]; serum 0843,2.306
same,PEPTIDE ELISA (O.D.),[1]; serum 8240,2.441
same,PEPTIDE ELISA (O.D.),[1]; serum 8241,0.545
same,PEPTIDE ELISA (O.D.),[1]; serum 8242,2.415
same,PEPTIDE ELISA (O.D.),[1]; serum 8332,1.977
same,PEPTIDE ELISA (O.D.),[1]; serum 8339,2.030
same,PEPTIDE ELISA (O.D.),[1]; serum 8350,1.982
same,PEPTIDE ELISA (O.D.),[1]; serum 8377,2.181
same,PEPTIDE ELISA (O.D.),[1]; serum 8378,2.140
same,PEPTIDE ELISA (O.D.),[1]; serum 8388,2.463
same,optical density (450 nm),"[2]; Table 4C, negative serum",0.070
same,optical density (450 nm),"[2]; Table 5, sample 1747 (negative), peptide concentration 0.01 micrograms per milliliter, listed as HCV peptide II",0.045
same,optical density (450 nm),"[2]; Table 5, sample 1747 (negative), peptide concentration 0.03 micrograms per milliliter, listed as HCV peptide II",0.045
same,optical density (450 nm),"[2]; Table 5, sample 1747 (negative), peptide concentration 0.1 micrograms per milliliter, listed as HCV peptide II",0.045
same,optical density (450 nm),"[2]; Table 5, sample 1747 (negative), peptide concentration 0.3 micrograms per milliliter, listed as HCV peptide II",0.046
same,optical density (450 nm),"[2]; Table 5, sample 1747 (negative), peptide concentration 1.0 micrograms per milliliter, listed as HCV peptide II",0.071
same,optical density (450 nm),"[2]; Table 5, sample 1747 (negative), peptide concentration 3.0 micrograms per milliliter, listed as HCV peptide II",0.064
same,optical density (450 nm),"[2]; Table 5, sample 1781 (negative), peptide concentration 0.01 micrograms per milliliter, listed as HCV peptide II",0.053
same,optical density (450 nm),"[2]; Table 5, sample 1781 (negative), peptide concentration 0.03 micrograms per milliliter, listed as HCV peptide II",0.049
same,optical density (450 nm),"[2]; Table 5, sample 1781 (negative), peptide concentration 0.1 micrograms per milliliter, listed as HCV peptide II",0.047
same,optical density (450 nm),"[2]; Table 5, sample 1781 (negative), peptide concentration 0.3 micrograms per milliliter, listed as HCV peptide II",0.051
same,optical density (450 nm),"[2]; Table 5, sample 1781 (negative), peptide concentration 1.0 micrograms per milliliter, listed as HCV peptide II",0.055
same,optical density (450 nm),"[2]; Table 5, sample 1781 (negative), peptide concentration 3.0 micrograms per milliliter, listed as HCV peptide II",0.057
same,optical density (450 nm),"[2]; Table 8, serum 1782 (blood donor), Avidin",0.057
same,optical density (450 nm),"[2]; Table 8, serum 1784 (blood donor), Avidin",0.045
same,optical density (450 nm),"[2]; Table 8, serum 1785 (blood donor), Avidin",0.045
same,optical density (450 nm),"[2]; Table 8, serum 1794 (blood donor), Avidin",0.153

# Source: US6667387B1, “HCV core peptides” (priority 1992, dated 2003)
